Assay results published in patent US20250387388A1, “COMPOUND AS TRK INHIBITOR AND/OR RET INHIBITOR AND USE THEREOF” (Medinno Pharmaceutical Technology (Zhuhai) Co., Ltd., priority 2022, published 2025).

Experiments:
[1] = biological target: TRKC (Homo sapiens (Human), UniProt Q16288); experiment: Inhibitory activity on TRKC (ADP-Glo Kinase Assay)
[2] = test system: acne model in rabbits; experiment: Acne model in rabbits (coal tar + Propionibacterium acnes); assay type: in vivo, New Zealand white rabbits; settings: for Rabbit ear weight: twice per day, topical, 2 weeks; for Serum DHT level / Serum IL-1α level: vs. model (vehicle) group; for Effect on inflammatory factors and acne (conclusion): rabbit, in vivo
Protocol: Modeling: Rabbits were acclimated for 7 days. On the right inner ear canal exit of the rabbits, a 2 cm×2 cm area was treated with 2% coal tar solution once a day, 0.5-1 mL each time, for 26 consecutive days. […] On the 8th day, Propionibacterium acnes was injected intradermally at 3-4 sites on the rabbit ears, 50 μl per rabbit, injected every other day for a total of 5 times. Treatment was started randomly on the 9th day after the last injection.
Rabbits were treated according to their groups. The blank group received no treatment. […] The model group received an equal amount of vehicle treatment, with the same application method and duration as the test drug groups.
Twenty-four hours after the last administration, a 2.8 cm punch was used to prepare ear samples at the application site, and their weight was measured. The ears from the modeling site were fixed with 4% paraformaldehyde, and consecutive sections (3 slices) were taken from the same location for HE staining and histopathological analysis. At the same time, the area of 3 hair follicles and the diameter of 3 sebaceous glands were measured to calculate the average values. Blood was drawn from the heart and centrifuged to obtain serum, and the levels of interleukin-1α (IL-1α), interleukin-6 (IL-6), and dihydrotestosterone (DHT) in serum were determined according to the ELISA kit instructions.
Tissue samples from animal ears were excised, fixed in 4% paraformaldehyde, dehydrated, embedded in paraffin, and sectioned and HE stained for observation of histopathological morphology changes. The tissue samples were fixed in 4% paraformaldehyde at normal temperature and the taken ears tissue was rinsed with running water for several hours, dehydrated through a series of ethanol solutions (70%, 80%, 90%), and then treated with a mixture of pure alcohol and xylene for 15 minutes, followed by xylene I for 15 minutes and xylene II for 15 minutes (until transparent). The tissue was then placed in a mixture of xylene and paraffin at a volume ratio of 1:1 for 15 minutes, followed by immersion with paraffin I and paraffin II each for 50-60 minutes. The tissue was embedded in paraffin and sectioned, and the sections were baked, dewaxed and hydrated in distilled water. The resulting sections were then stained in hematoxylin solution for 3 minutes, differentiated in a hydrochloric acid alcohol solution for 15 seconds, slightly washed, blued in a return blue solution for 15 seconds, rinsed with running water, stained with eosin for 3 minutes, rinsed with running water, dehydrated, cleared, and mounted for microscopic examination.
A double-antibody one-step sandwich Enzyme-linked Immunosorbent Assay (ELISA) ket was used. A capture antibody for the mouse target indicators was pre-coated onto microplate wells, to which samples, standards, and HRP-labeled detection antibodies were added sequentially, followed by incubation and thorough washing. TMB substrate was added for color development, which turned into blue in the presence of peroxidase and then into yellow after acidification. The depth of color was positively correlated with the concentration of the target in the samples. The absorbance (OD450 value) was measured at a wavelength of 450 nm using the microplate reader, and the sample concentration was calculated.

[3] = biological target: RET (Homo sapiens (Human), UniProt P07949); experiment: Inhibitory activity on RET kinase (HTRF KinEASE-TK); assay type: biochemical; settings: ATP 16 μM
Text: 3) Formulate 2.5× kinase with 1× kinase reaction buffer.

[4] = biological target: TRKB (Homo sapiens (Human), UniProt Q16620); experiment: Inhibitory activity on TRKB (ADP-Glo Kinase Assay)
[5] = test system: diabetic foot animal model; experiment: Diabetic foot animal model (high-fat diet mice, back wound); assay type: in vivo, C57BL/6 male mice
Text: Twenty 2-month-old normal wild-type C57BL/6 male mice were ordered from Jicai Pharmaceutical and divided into two groups of 10 each. One group was fed a standard diet (SD), and the other group was fed a 60% high-fat diet (HFD) to induce obesity. Both groups were fed under the same conditions for about 6 months. Additionally, five 2-month-old young male mice were ordered to perform subsequent wound modeling and comparison with the SD group (8 months old, 10 mice) and the HFD group (8 months old, 10 mice). Mice were anesthetized with isoflurane, and a razor was used to remove the back hair, exposing the back skin. A marker pen and ruler were used to draw a 1.0 cm×0.5 cm rectangular area on each side of the back. A sterilized surgical scissor was used to cut away the skin in this area without damaging the subcutaneous tissue. After the mice regained consciousness, they were carefully placed back in their cages. The animals were euthanized at specified time intervals after the injury, and the wound tissue was collected for subsequent experiments and analysis. After creating wounds on the left and right sides of the mouse's back, the mice were grouped and administered drugs as indicated in the table below (where Control represents a blank drug control with DMSO+vehicle). The 1228 gel (0.5% or 1%) was administered every 12 hours, with a dose of 50 mg each time. The wounds were photographed and weighed daily (every 24 hours) for 7 days, and then samples were collected at the 7th day. Specific operational details are described in the section “3. Sample Collection and Analysis” below. [table] After anesthesia, the mice were placed on an operation table with their backs extended, and high-definition photographs of the entire back and the local wound area of the mice were taken (including a ruler). […] The body weight of the mice was also measured to analyze the impact of the drug on systemic metabolism. On the seventh day of wound repair after modeling on the mouse's back, the mice were euthanized, and the wound tissue was collected for subsequent experiments and analysis, including tissue from the center of the wound and distal non-wounded control skin. The tissue was embedded in OCT and subjected to cryosectioning for subsequent HE or multiple staining analysis. Mouse skin tissue was placed in an embedding box filled with OCT (Tissue-Tek® O.C.T. Compound, Catalog #4583, Sakura Finetek USA Inc) and laid flat on dry ice to quick-freeze. Once the OCT was fully frozen, the embedding box was transferred to a −20° C. freezer for storage. Before sectioning, the cryostat was pre-cooled to −25° C. […] The flattened tissue sections were attached to glass slides and checked under a microscope for completeness. The sections were left to air-dry at room temperature for 2-3 hours before being stored in a −20° C. freezer. The sections were taken out of the −20° C. freezer and allowed to thaw at room temperature, and the condensation water was dried for 10-20 minutes until completely dry. The sections were then fixed with 500-1000 μL of frozen 4% paraformaldehyde (4% paraformaldehyde prepared by diluting 10 ml of 16% PFA—paraformaldehyde in 30 ml of frozen PBS and stored at 4° C.) for 10 minutes at room temperature. The sections were washed once with dH2O (single distilled water) (incubation<1 minute). After washing, hematoxylin solution was added, and the sections were incubated for 55-60 seconds, then quickly washed three times with running tap water until no blue dye was visible. Eosin solution was added next, and the sections were incubated for 25-30 seconds, then quickly washed three times with running tap water, followed by washing with 70% ethanol once. The sections were dehydrated in 100% ethanol for 5 minutes and then in xylene for 5 minutes. Finally, the sections were coverslipped with a neutral resin, taking care not to trap air bubbles when placing the coverslip with forceps. […]

Chain of TRKB (Q16620 32-822): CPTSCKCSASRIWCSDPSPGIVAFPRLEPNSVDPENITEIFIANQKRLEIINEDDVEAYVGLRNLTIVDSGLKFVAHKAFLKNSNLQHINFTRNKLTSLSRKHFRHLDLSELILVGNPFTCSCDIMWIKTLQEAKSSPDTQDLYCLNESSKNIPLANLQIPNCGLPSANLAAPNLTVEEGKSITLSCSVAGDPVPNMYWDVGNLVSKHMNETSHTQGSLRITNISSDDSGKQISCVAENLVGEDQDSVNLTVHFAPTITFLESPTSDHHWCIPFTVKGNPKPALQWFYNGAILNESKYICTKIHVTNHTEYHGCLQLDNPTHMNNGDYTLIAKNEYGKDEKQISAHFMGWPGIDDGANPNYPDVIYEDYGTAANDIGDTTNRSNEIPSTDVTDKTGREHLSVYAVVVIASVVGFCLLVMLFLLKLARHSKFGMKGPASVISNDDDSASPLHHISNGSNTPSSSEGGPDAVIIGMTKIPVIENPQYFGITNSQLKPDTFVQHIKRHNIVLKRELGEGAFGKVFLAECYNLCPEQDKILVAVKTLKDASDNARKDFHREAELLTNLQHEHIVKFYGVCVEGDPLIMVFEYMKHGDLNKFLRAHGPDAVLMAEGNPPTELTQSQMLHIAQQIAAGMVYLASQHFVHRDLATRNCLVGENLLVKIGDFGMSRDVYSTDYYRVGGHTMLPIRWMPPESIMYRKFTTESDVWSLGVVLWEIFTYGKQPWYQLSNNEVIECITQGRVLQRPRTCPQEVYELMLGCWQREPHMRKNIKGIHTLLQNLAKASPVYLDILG
Chain of TRKC (Q16288 32-839): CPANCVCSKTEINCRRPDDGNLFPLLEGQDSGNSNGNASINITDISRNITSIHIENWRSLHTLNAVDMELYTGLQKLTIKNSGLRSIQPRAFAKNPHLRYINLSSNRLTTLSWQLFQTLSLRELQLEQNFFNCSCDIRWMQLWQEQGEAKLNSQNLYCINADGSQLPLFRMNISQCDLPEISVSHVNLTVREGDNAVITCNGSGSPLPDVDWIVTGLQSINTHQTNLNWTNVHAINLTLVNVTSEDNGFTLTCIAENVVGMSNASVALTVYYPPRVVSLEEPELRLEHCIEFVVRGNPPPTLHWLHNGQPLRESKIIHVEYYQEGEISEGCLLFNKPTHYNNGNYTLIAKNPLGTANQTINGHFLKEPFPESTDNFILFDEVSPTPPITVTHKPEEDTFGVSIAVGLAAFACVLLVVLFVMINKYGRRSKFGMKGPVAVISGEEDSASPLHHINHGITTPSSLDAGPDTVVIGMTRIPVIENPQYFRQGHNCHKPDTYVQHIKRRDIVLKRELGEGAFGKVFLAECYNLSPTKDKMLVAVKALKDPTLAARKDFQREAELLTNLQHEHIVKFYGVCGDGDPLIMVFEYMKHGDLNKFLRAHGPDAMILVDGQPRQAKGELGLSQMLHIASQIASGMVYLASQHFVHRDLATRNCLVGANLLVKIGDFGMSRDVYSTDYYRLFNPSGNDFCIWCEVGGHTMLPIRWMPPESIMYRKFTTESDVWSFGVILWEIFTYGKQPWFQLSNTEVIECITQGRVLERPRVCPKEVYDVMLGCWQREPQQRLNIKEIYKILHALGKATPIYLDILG
Chain of RET (P07949 29-1114): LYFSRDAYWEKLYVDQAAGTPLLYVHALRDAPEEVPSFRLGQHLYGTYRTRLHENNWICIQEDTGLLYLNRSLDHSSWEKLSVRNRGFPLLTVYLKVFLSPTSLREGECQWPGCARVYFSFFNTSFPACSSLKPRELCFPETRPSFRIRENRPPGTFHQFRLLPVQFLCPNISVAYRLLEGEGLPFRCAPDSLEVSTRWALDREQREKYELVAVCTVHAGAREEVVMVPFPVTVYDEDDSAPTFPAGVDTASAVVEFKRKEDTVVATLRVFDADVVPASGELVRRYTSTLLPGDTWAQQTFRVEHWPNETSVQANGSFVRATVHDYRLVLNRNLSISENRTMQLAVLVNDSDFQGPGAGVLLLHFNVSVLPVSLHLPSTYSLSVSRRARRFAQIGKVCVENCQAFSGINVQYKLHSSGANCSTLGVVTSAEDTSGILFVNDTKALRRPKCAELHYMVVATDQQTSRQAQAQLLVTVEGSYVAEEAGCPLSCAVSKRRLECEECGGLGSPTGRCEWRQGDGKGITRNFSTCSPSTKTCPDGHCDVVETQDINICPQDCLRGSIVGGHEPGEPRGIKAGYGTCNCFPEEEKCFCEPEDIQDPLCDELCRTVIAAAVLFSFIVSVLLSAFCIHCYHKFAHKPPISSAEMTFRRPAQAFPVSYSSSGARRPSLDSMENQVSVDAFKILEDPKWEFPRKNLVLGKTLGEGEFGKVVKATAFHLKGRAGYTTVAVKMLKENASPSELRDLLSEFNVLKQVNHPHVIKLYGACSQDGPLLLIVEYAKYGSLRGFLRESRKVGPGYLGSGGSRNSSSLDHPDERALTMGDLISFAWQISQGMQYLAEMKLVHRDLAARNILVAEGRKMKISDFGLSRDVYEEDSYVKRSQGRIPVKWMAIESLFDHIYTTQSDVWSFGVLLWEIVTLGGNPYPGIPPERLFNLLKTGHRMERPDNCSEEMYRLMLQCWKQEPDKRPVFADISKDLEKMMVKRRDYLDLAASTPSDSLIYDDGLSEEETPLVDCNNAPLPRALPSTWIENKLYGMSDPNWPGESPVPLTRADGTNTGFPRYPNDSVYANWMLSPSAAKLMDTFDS

SMILES | IC50 [1] | Serum IL-1α, IL-6 and DHT levels ([2]; 1 mg/kg low-dose) | Hair follicle area ([2]; 3 mg/kg) | Rabbit ear weight ([2]; 3 mg/kg each time) | Ear tissue HE staining ([2]; 3 mg/kg medium-dose) | Serum DHT level ([2]; 3 mg/kg) | Serum IL-1α level ([2]; 3 mg/kg) | Hair follicle area ([2]; 9 mg/kg) | Rabbit ear weight ([2]; 9 mg/kg each time) | Serum DHT level ([2]; 9 mg/kg) | Serum IL-1α level ([2]; 9 mg/kg) | Effect on inflammatory factors and acne (conclusion) [2] | IC50 [3] | IC50 [4] | Epithelial healing (wound non-healing distance) ([5]; 1% MDI-1228 gel, HFD group) | Area of green lipid droplets in the wound center (Bodipy staining) ([5]; MDI-1228 gel 50 mg every 12 hours, 7 days) | Size of the adipocytes in the wound center (HE staining) ([5]; MDI-1228 gel 50 mg every 12 hours, 7 days, vs. control) | Lipolysis in the diabetic foot model ([5]; conclusion / summary statement) | Myofibroblasts at the wound ([5]; conclusion / summary statement) | Wound healing ([5]; conclusion / summary statement)
CCc1cc(O)c(F)cc1-c1ccc2c(-c3nc4c([nH]3)CN(C(=O)N3CC[C@H](O)C3)C4)n[nH]c2c1 [MDI-1228, (S)-(2-(6-(2-ethyl-5-fluoro-4-hydroxyphenyl)-1H-indazol-3-yl)-4,6-dihydropyrrolo[3,4-d]imidazol-5-(1H)-yl)(3-hydroxylpyrrolidin-1-yl)ketone] | 0.6 nM | a trend of reduction in all three indicators | significantly reduced the enlargement of hair follicles | reduced ear weight | the best treatment effect | significantly reduced | significantly reduced | significantly reduced the enlargement of hair follicles | reduced ear weight | significantly reduced | significantly reduced | reducing the expression of inflammatory factors and improving acne | 0.62 nM | 1.77 nM | could effectively promote epithelial healing | significantly reduced | significantly reduced | – | – | –
CCc1cc(O)c(F)cc1-c1ccc2c(-c3nc4c([nH]3)CN(C(=O)NCC(O)CCl)C4)n[nH]c2c1 (stereo not drawn) [MDI-1288] | 0.59 nM | – | – | reduced ear weight | – | significantly reduced | significantly reduced | – | – | – | – | reducing the expression of inflammatory factors and improving acne | 3.43 nM | 1.04 nM | – | – | – | can significantly promote lipolysis | significantly increase the proportion of myofibroblasts | effectively promote wound healing
